In patent US4174402A, “Method for the prophylaxis of SRS-A-induced symptoms” (priority 1978, dated 1979):
“Also recorded” adds a separate entry of the source. Where two headings read alike, the source gives them in different places.

Experiments:
SRS-A = test: Test Procedure 2: inhibition of SRS-A-induced bronchoconstriction in anesthetized guinea pigs (Konzett-Rossler); assay type: in vivo, guinea pig; conditions: for % Inhibition (duration of anti-SRS-A effect) / Ratio of Peak Response to SRS-A in Paired Med./Co. Guinea Pigs ± S.E.: 10 mg/kg p.o.
From the text: SRS-A was harvested as described in Test Procedure 1 described hereinabove. A slightly modified Konzett-Rossler preparation [Arch. […] Guinea pigs weighing 350 to 450 g were anesthetized ip with 1.5 g/kg urethane. The jugular vein and trachea were cannulated and the guinea pigs were artificially respired at a rate of 40 strokes/minute. […] A side arm of the inflationary air cannula was connected to a pressure transducer and resistance to pulmonary inflation continuously recorded. […] Studies with SRS-A commenced after each guinea pig had attained maximum bronchoconstrictor response to histamine. […] The effects of the test compounds were studied by measuring SRS-A-induced bronchoconstriction side-by-side in two guinea pigs, one medicated and one control. Subsequent medicated/control pairs were alternated on two respiratory pumps. In this manner, the gradual decomposition of SRS-A and differences between the two pump/recorder systems, if any, were controlled. The dose (volume) of each sample of SRS-A was adjusted in each pair to keep the peaks of increases in bronchial resistance in control guinea pigs within 13 to 40 mmHg. Bronchoconstriction following injection of SRS-A was measured two ways; as the peak increase in resistance to inflation and, in view of the occasional irregular bronchoconstriction response curves following injection of SRS-A, as the sum of increases in bronchoconstriction over 10 minutes (pressure/time units). Pressure/time units were calculated by measuring the area under the curve of inflationary resistance where ordinates were set at 10 mm of pen excursion/10 mm pressure Hg and the abscissas were set at 15 mm of paper travel/minute. […] SRS-A-induced bronchoconstriction (increase in resistance) was calculated as the area under the curve and over the normal base line of resistance to inflation. […] The effects of the test compounds upon SRS-A-induced bronchoconstriction were expressed as ratios of the peaks and as ratios of the pressure/time units between the paired medicated and control guinea pigs. The consistency of paired responses to SRS-A in nonmedicated guinea pigs was determined in the same manner, by alternating the ratios of the results of guinea pigs on pumps one and two. […] SRS-A was injected 5 minutes after these latter injections. Compound b was prepared as a solution in 2% N-methylglucamine and used within 3 hours. […] Control guinea pigs received injections of the respective solvent vehicles. In order to compare the activities of compound b following iv and po routes of administration, compound b was also administered orally. […] Control guinea pigs received 2% N-methylglucamine. Fifteen minutes later, the guinea pigs were anesthetized, cannulated, and prepared for injections of SRS-A as described. The procedure was timed so that SRS-A was injected 1 hour after the oral administration of compound b. In a separate experiment, using the same methodology, the duration anti-SRS-A activity of compound b was determined after oral administration. Compound b was finely ground in a tissue homogenizer and prepared as a suspension in 0.5% gum tragacanth. A dose of 10 mg/kg was administered and anti-SRS-A effect studied at 1, 4 and 7 hr postmedication. The ratios of peak increases in intratracheal pressure between paired medicated and control guinea pigs was used to calculate percent inhibition.

histamine = test: Test Procedure 5: histamine-induced bronchoconstriction in anesthetized guinea pigs; assay type: in vivo, guinea pig
Description: Guinea pigs weighing 350 to 400 g were anesthetized ip with 1.5 g/kg urethane and prepared for measurements of resistance to pulmonary inflation using a slightly modified Konzett-Rossler method (see Test Procedure 2). […] The experimental procedure was started after each guinea pig had attained its maximal, repeatable response to histamine. […] Artificial respiration was resumed 25 minutes later. Thirty minutes after the administration of one of the drugs, tne guinea pigs received two of three injections of histamine at 3-minute intervals. The average of these histamine responses (increases in resistance) was expressed as percent of the maximal histamine response obtained with the same guinea pig before the administration of the drug. In addition to sc administration, compound b was also studied following po administration. In these studies, the time interval between po medication and the secondary histamine challenges was increased to 45 minutes.

serotonin = test: Test Procedure 6: serotonin-induced bronchoconstriction in anesthetized guinea pigs; assay type: in vivo, guinea pig
Description: Guinea pigs, weighing 275-340 g, were anesthetized and prepared for measurements of resistance to pulmonary inflation using a slightly modified Konzett-Rossler method (see Test Procedure 2). All guinea pigs received 0.1 mg/kg of propranolol iv and 5 minutes later, 50 mcg/kg of serotonin (creatinine complex) iv. Compound b or cyproheptadine were administered iv just before the injection of propranolol at 50 or 5 mg/kg, respectively. Compound b was prepared as a 5% solution in 5% N-methylglucamine and cyproheptadine as a 0.25% aqueous solution.

[1] = suspension, 1 hr before test, P 0.01
[2] = suspension, 4 hr before test, P 0.01
[3] = p.o. 3.3 mg/kg, solution, 1 hour
[4] = p.o. 10 mg/kg, solution, 1 hour

Description for bradykinin: Antagonism of bradykinin-induced bronchoconstriction in guinea pigs was determined by measuring increases in resistance to artificial pulmonary inflation (Konzett-Rossler preparation). […] Due to large variations in bronchoconstricting responses among individual guinea pigs, each guinea pig serves as its own control and was challenged with bradykinin twice. The second response to bradykinin was expressed as percent of the first response to bradykinin. […] All guinea pigs having a first bradykinin response of less than 12 mm Hg were rejected as poor responders. […] In order to augment the bronchoconstrictor response, each guinea pig received 100 mcg propranolol/kg, iv, 5 minutes before the first injection of bradykinin (30 mcg/kg, iv). […] Five minutes after the injection of a test compound the guinea pigs received the second injection of bradykinin and the peak of the response determined. The effects of both test compounds were expressed as % inhibition of bradykinin-induced increase in bronchial resistance to forced inflation, as compared to the levels of bronchial resistance following iv administration of their respective solvent controls.

In the case of `COc1ccc2c(c1)c1c(n2C(=O)c2ccccc2)CCC(C(=O)O)C1` (stereo not drawn) [Compound b, 9-benzoyl-6-methoxy-1,2,3,4-tetrahydrocarbazole-3-carboxylic acid], the “effect against bradykinin-induced bronchoconstriction (activity profile)” value (bradykinin; guinea pigs) is reported as “effectiveness”, the “inhibition of bradykinin-induced increases in bronchial resistance” value (bradykinin; iv) is reported as “inhibited bradykinin-induced increases in bronchial resistance to inflation in a dose-related manner” and the “% Inhibition” value (bradykinin; iv 0.33 mg/kg) is reported as 12%. The “Average Increase In Bronchial Resistance (2nd Response in % of 1st Response ± S.E.)” value (bradykinin; iv 0.33 mg/kg) was 76 ± 13%, the “% Inhibition” value (bradykinin; iv 1.0 mg/kg) was 48% and the “Average Increase In Bronchial Resistance (2nd Response in % of 1st Response ± S.E.)” value (bradykinin; iv 1.0 mg/kg) was 45 ± 7%. For the same compound, the “% Inhibition” value (bradykinin; iv 3.3 mg/kg) was 81%, the “Average Increase In Bronchial Resistance (2nd Response in % of 1st Response ± S.E.)” value (bradykinin; iv 3.3 mg/kg) was 16 ± 3% and the “% Inhibition” value (bradykinin; iv 10.0 mg/kg) was 84%. For the same compound, the “Average Increase In Bronchial Resistance (2nd Response in % of 1st Response ± S.E.)” value (bradykinin; iv 10.0 mg/kg) was 14 ± 5%, the “% Inhibition” value (bradykinin; iv 33.0 mg/kg) was 93% and the “Average Increase In Bronchial Resistance (2nd Response in % of 1st Response ± S.E.)” value (bradykinin; iv 33.0 mg/kg) was 6 ± 4%. For the same compound, the “inhibition of bradykinin-induced bronchoconstriction” value (bradykinin; iv 3.3, 10 and 33 mg/kg) was “nearly complete inhibition”, the “% Inhibition (duration of anti-SRS-A effect)” value (SRS-A; [1]) was 81% and the “Ratio of Peak Response to SRS-A in Paired Med./Co. Guinea Pigs ± S.E.” value (shortened to “Ratio of Peak Response”) (SRS-A; [1]) was 0.19 ± 0.05. The “% Inhibition (duration of anti-SRS-A effect)” value (SRS-A; [2]) was 68%, the “Ratio of Peak Response” value (SRS-A; [2]) was 0.32 ± 0.08 and the “% Inhibition (duration of anti-SRS-A effect)” value (SRS-A; suspension, 7 hr before test) was 0%. For the same compound, the “Ratio of Peak Response” value (SRS-A; suspension, 7 hr before test) was 1.00 ± 0.15, the minimal effective dose (SRS-A; Cavia porcellus, intravenous, read-out: minimal active dose) was 1 mg/kg and the “effect against SRS-A-induced bronchoconstriction (activity profile)” value (SRS-A; guinea pigs) was “effectiveness”. The “% Inhibition (sum of increase in resistance over 10 min)” value (SRS-A; i.v. 0.3 mg/kg) was 0%, the “Sum of Increase in Resist. to Infl. over 10 min, Avg Ratio Med/Co. Pairs ± S.E.” value (from here on “Sum of Increase … Avg Ratio Med/Co. Pairs ± S.E.”) (SRS-A; i.v. 0.3 mg/kg) was 1.18 ± .33 and the “% Inhibition (peak increase in resistance)” value (SRS-A; i.v. 0.33 mg/kg) was 0%. For the same compound, the “Peak Increase in Resistance to Inflation, Avg Ratio of Med/Co. Pairs ± S.E.” value (SRS-A; i.v. 0.33 mg/kg) was 1.10 ± .19, the “% Inhibition (peak increase in resistance)” value (SRS-A; i.v. 1.0 mg/kg) was 54% and the “% Inhibition (sum of increase in resistance over 10 min)” value (SRS-A; i.v. 1.0 mg/kg) was 45%. For the same compound, the “Peak Increase in Resistance to Inflation, Avg Ratio of Med/Co. Pairs ± S.E.” value (SRS-A; i.v. 1.0 mg/kg) was 0.44 ± .07, the “Sum of Increase … Avg Ratio Med/Co. Pairs ± S.E.” value (SRS-A; i.v. 1.0 mg/kg) was 0.55 ± .09 and the “% Inhibition (peak increase in resistance)” value (SRS-A; i.v. 3.3 mg/kg) was 89%. The “% Inhibition (sum of increase in resistance over 10 min)” value (SRS-A; i.v. 3.3 mg/kg) was 83%, the “Peak Increase in Resistance to Inflation, Avg Ratio of Med/Co. Pairs ± S.E.” value (SRS-A; i.v. 3.3 mg/kg) was 0.11 ± .04 and the “Sum of Increase … Avg Ratio Med/Co. Pairs ± S.E.” value (SRS-A; i.v. 3.3 mg/kg) was 0.17 ± .05. The “% Inhibition (peak increase in resistance)” value (SRS-A; i.v. 10 mg/kg) was 95%, the “% Inhibition (sum of increase in resistance over 10 min)” value (SRS-A; i.v. 10 mg/kg) was 86% and the “Peak Increase in Resistance to Inflation, Avg Ratio of Med/Co. Pairs ± S.E.” value (SRS-A; i.v. 10 mg/kg) was 0.05 ± .03. The “Sum of Increase … Avg Ratio Med/Co. Pairs ± S.E.” value (SRS-A; i.v. 10 mg/kg) was 0.14 ± .04, the “inhibition of SRS-A-induced increases in resistance to inflation” value (SRS-A; intravenous) was “inhibited SRS-A-induced increases in resistance to inflation in a dose-related manner” and the “potency relative to phenylbutazone, times more potent (95% confidence limits)” value (SRS-A; intravenous, calculated by peaks of increases in resistance) was 3.8 (95% confidence limits of 1.8 to 7.8) times. The “absorption from the GI tract” value (SRS-A; oral solution in 2% N-methylglucamine, suggested by activity ratio) was “readily absorbed from the GI tract”, the “inhibition of SRS-A-induced bronchoconstriction” value (SRS-A; oral solutions) was “dose-related inhibition” and the “% Inhibition (peak increase in resistance)” value (SRS-A; [3]) was 36%. The “% Inhibition (sum of increase in resistance over 10 min)” value (SRS-A; [3]) was 47%, the “Peak Increase in Resistance to Inflation, Avg Ratio of Med/Co. Pairs ± S.E.” value (SRS-A; [3]) was 0.64 ± .13 and the “Sum of Increase … Avg Ratio Med/Co. Pairs ± S.E.” value (SRS-A; [3]) was 0.53 ± .13. The “% Inhibition (peak increase in resistance)” value (SRS-A; [4]) was 87%, the “% Inhibition (sum of increase in resistance over 10 min)” value (SRS-A; [4]) was 92% and the “Sum of Increase … Avg Ratio Med/Co. Pairs ± S.E.” value (SRS-A; [4]) was 0.08 ± .03. For the same compound, the “duration of inhibition of SRS-A-induced bronchoconstriction” value (SRS-A; single oral dose 10 mg/kg, suspension) was 4 h, the “iv/po activity ratio (po AED50/iv AED50)” value (SRS-A; solution in 2% N-methylglucamine) was 2.6 and the “effect against histamine-induced bronchoconstriction (activity profile)” value (histamine; guinea pigs) was “ineffectiveness”. The “inhibition of histamine-induced bronchoconstriction” value (histamine; oral 100 mg/kg) was “no significant inhibition”, the “% Inhibition” value (histamine; po 100 mg/kg) was 16% and the “Histamine-Response in % of Premed. Histamine Response” value (histamine; po 100 mg/kg) was 84 ± 26%. For the same compound, the “% Inhibition” value (histamine; sc 100 mg/kg) was 8%, the “Histamine-Response in % of Premed. Histamine Response” value (histamine; sc 100 mg/kg) was 92 ± 2% and the “inhibition of histamine-induced bronchoconstriction” value (histamine; sc 100 mg/kg) was “no significant inhibition”. The “effect against serotonin-induced bronchoconstriction” value (serotonin; guinea pigs) was “no inhibitory effect; also recorded: ineffectiveness”, the “Increase in Resistance (mm Hg)” value (serotonin; iv 50 mg/kg, P insign.) was 45 ± 8 mm Hg and the Inhibition % (serotonin; iv 50 mg/kg, P insign.) was 4%.
